Assay results from US8716437B2 (priority 2007, dated 2014).

What was measured:
[1] = tested on: Human CD3+ T cells
Protocol: 10^5 freshly isolated CD3′ T cells were activated using CD3/CD28 dynabeads (Dynal, USA) at a T cell:bead ratio of 1:1 in 200 ul of medium in 96 wells plate. Channel blockers diluted at different concentrations in PBS were added to the cells 1 h prior to stimulation (done in triplicate).
Human CD3′ T cells were stimulated with CD3/CD28 beads following incubation with different concentrations (from 0.1 to 100 nM) of MK and KTX. The activity of MK was compared to the activity of KTX that was previously described to block the channels (Beeton et al, JI 2001).

[2] = tested on: vector transfected cells; test: Phage panning on vector transfected cells (CONTROL); assay type: binding, human; conditions: one round of panning; calculated input 5:95%
Protocol: Following incubation of the cells with the phages, cells were subjected to wash to remove the unbound/weakly bound phages. The remaining bound phages were eluted from the cells and transformed into XL1 E. coli, and plated onto LB plates with antibiotic selecting for the phagemids. The following day, 19-20 colonies of transformed XL1 were randomly selected and genotyped to establish the relative ratio (i.e., its departure from the calculated initial input of 5:95%) of the two different phage species, before and after the panning.

[3] = target: T1, Kv1.3 (Homo sapiens, UniProt P22001); test: Phage panning on live cells (HEK, COS) expressing Kv1.3 channels; assay type: binding; design: expressed in transfected cells; host or cells: HEK (HEK293) and COS cells
Source text: In another example, receptors may be expressed in cells. For example, cells may be stably or transiently transfected with one or more receptors can be utilized as expressed in native tissues (Clackson and Lowman, Phage display. Oxford University Press, 2004; Barbas et al., Phage display. A laboratory manual. Cold Spring Harbor Laboratory Press, 2001; Sambrook et al., Molecular Cloning: A Laboratory Manual. Vols 1-3. Cold Spring Harbor Laboratory Press, 1989). In one example, HEK (mammalian human embryonic kidney) and COS cells expressing wild-type Kv1.3 or Kv1.3-PDZ domain chimera were employed, the latter target allowing a “double” panning (e.g., as a control or to enhance binding affinity) using phages expressing kaliotoxin-1 and/or PDZ-binder domain.
Panning may be performed by the binding of ligands to the receptors, followed by washes and ligand recovery. In one example, panning is performed according to standard methods of phage display (Clackson and Lowman, Phage display. Oxford University Press, 2004; Barbas et al., Phage display. A laboratory manual. Cold Spring Harbor Laboratory Press, 2001). Panning may be repeated until the desired enrichment is achieved. In addition, libraries can be pre-depleted on surfaces or cells that contain no receptors or on a receptor where the putative ligand receptor domain may be directly or indirectly altered. Additionally, any and all conditions of panning may be varied, altered or changed to achieve optimal results, such as the isolation of a specific ligand. Panning variations include, but are not limited to, the presence of competing ligand(s), presence of excess target(s), length and temperature of binding, pre-absorption of the ligand library on one or more different receptor(s) or cells or surfaces, composition of binding solution (e.g., ionic strength), stringency of washing, and recovery procedures. Phages recovered from panning may be processed for further rounds of panning, functional analysis, and/or sequencing/genotyping to deduce the resulting ligands' amino acid sequence or biological properties (Clackson and Lowman, Phage display. Oxford University Press, 2004; Barbas et al., Phage display. A laboratory manual. Cold Spring Harbor Laboratory Press, 2001).
5×10^11 phagemids were added to the cell cultures in “B.”
A library of KTX-like ligands, with a calculated diversity of greater than 11,000, was created de novo. The library comprised approximately 8% KTX-like ligands and 92% non-KTX-like ligands. The library of ligands was screened on Kv1.3 receptors expressed in HEK and COS cells.
Transfection efficiency was monitored with cotransfection of gene encoding for the green fluorescence protein (GFP) and observing the fluorescence after 1-2 days following transfection.
KTX and mokatoxin-1 are Kv1.3 specific scorpion toxins. […] Following incubation of the cells with the phages, cells were subjected to wash to remove the unbound/weakly bound phages. The remaining bound phages were eluted from the cells and transformed into XL1 E. coli, and plated onto LB plates with antibiotic selecting for the phagemids.

[4] = target: T1, Kv1.3; test: Whole-cell patch-clamp of Kv1.3 currents in HEK293 cells, toxin-phage applied; assay type: cell-based; design: expressed in transfected cells; host or cells: HEK (HEK293) and COS cells; conditions: 0.1 nM toxin-displaying phage
Protocol: […] […] Plasmids were transfected into cells with Lipofectamine 2000 (Invitrogen) according to the manufacturer's instructions. Experiments were performed at 24 hr. Whole-cell patch-clamp was performed using an Axopatch 200B amplifier and pCLAMP software (Molecular Devices, Union City, Calif.) at filter and sampling frequencies of 5 and 25 kHz respectively. Kv1.3 currents were evoked by 250 ms test pulses to 50 mV from −80 mV with a 5 second interpulse interval and studied in a bath solution comprising in mM: 1.3 CaCl2, 0.5 MgCl2, 0.4 MgSO4, 3.56 KCl, 0.44 KH2PO4, 139.7 NaCl, 0.34 Na2HPO4, 5.5 glucose, 10 HEPES adjusted to pH 7.4 with NaOH. […] Electrodes were coated with Sigmacote (Sigma) prior to use.
Electrophysiological recordings were performed with mokatoxin—0422 to confirm blocking of Kv1.3 channels. […] Plasmids were transfected into cells with Lipofectamine 2000 (Invitrogen) according to the manufacturer's instructions. Experiments were performed at 24 hrs. Whole-cell patch-clamp was performed using an Axopatch 200B amplifier and pCLAMP software (Molecular Devices, Union City, Calif.) at filter and sampling frequencies of 5 and 25 kHz respectively. […]

[5] = tested on: guinea pig ileum; test: Spontaneous motility (twitches) of guinea pig ileum strips; conditions: reference toxins 10 nM; mokatoxin-1 1-100 nM
[6] = tested on: guinea pig ileum; test: Intraluminal pressure measurement of peristaltic activity of guinea pig ileum; conditions: MgTX 10 nM; mokatoxin-1 1-100 nM
[7] = tested on: guinea pig ileum; conditions: J Pharmacol Exp Ther. 1999; cited from earlier work
[8] = one round of panning, calculated input 5:95%

T1 sequence (P22001 whole entry, the tested form may be a part): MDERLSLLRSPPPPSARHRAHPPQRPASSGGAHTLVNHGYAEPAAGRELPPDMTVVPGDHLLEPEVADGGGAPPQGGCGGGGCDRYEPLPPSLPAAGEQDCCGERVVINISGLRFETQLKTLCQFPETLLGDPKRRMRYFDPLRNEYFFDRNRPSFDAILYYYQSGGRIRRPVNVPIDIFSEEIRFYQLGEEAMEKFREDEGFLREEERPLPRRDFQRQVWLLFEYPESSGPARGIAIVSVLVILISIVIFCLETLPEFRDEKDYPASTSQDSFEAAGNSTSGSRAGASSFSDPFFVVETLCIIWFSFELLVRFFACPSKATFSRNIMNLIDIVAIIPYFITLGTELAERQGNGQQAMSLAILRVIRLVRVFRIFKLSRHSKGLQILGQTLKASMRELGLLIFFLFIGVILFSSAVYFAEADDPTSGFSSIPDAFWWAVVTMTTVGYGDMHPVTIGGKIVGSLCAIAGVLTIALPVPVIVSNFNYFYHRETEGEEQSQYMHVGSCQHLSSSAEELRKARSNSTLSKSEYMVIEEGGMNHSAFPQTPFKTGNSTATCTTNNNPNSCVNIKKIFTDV

Molecule: CC[C@H](C)[C@H](N)C(=O)N[C@@H](CC(N)=O)C(=O)N[C@H](C(=O)N[C@@H](CCCCN)C(=O)N[C@H]1CSSC[C@@H]2NC(=O)[C@H](CCCCN)NC(=O)CNC(=O)[C@H](Cc3ccccc3)NC(=O)[C@H](CCCNC(=N)N)NC(=O)[C@H](CCSC)NC(=O)CNC(=O)[C@H](C)NC(=O)[C@H](CC(=O)O)NC(=O)[C@H](CCCCN)NC(=O)[C@@H]3CSSC[C@@H](C(=O)N[C@@H](Cc4ccc(O)cc4)C(=O)N[C@@H](CO)C(=O)O)NC(=O)[C@H](CCCNC(=N)N)NC(=O)[C@H](CSSC[C@H](NC(=O)[C@H](CCC(N)=O)NC(=O)[C@H](CCC(N)=O)NC(=O)[C@@H]4CCCN4C(=O)[C@H](CC(C)C)NC(=O)[C@H](CO)NC1=O)C(=O)N[C@@H]([C@@H](C)CC)C(=O)N[C@@H](CCCCN)C(=O)N1CCC[C@H]1C(=O)N3)NC(=O)[C@H](CCCCN)NC(=O)[C@H](CCCCN)NC(=O)[C@H](CC(N)=O)NC(=O)[C@H](CCSC)NC2=O)C(C)C [MK-1, mokatoxin-1]
- cell viability [1]: no reduction of cell viability

Molecule: mokatoxin-2
- # of genotype (%), Control [2]: 5%
- # of genotype, Control [2]: 1
- share after the 2nd round of panning of the library on Kv1.3 cells ([3]; HEK, KTX scaffold combinatorial library, n=18): 11%
- # of genotype (%), Test [3, 8]: 90%
- # of genotype, Test [3, 8]: 18
- block of Kv1.3 channels expressed in mammalian cells [4]: blocks Kv1.3 channels

Molecule: Margatoxin
- induction of twitches in ileum strips [5]: induced twitches
- pressure threshold for initiation and frequency of peristaltic waves [6]: induced a lowering of the pressure threshold
- ileum contractions [7]: contractions
